In EPA's ToxValDB 9.5 (doi:10.2903/j.efsa.2009.178r):

Tests used:
Apis mellifera = settings: acute, mortality
Canidae = settings: chronic; duration: 1 years; oral; Dog Other; histopathology: nonneoplastic
Colinus virginianus = settings: acute; oral; diet; mortality
Daphnia magna = settings: chronic/long-term; duration: 21 days; mobility
Procambarus sp. = settings: acute; duration: 96 hours; mortality
Tagia sp. = settings: acute; mortality
Aphidius rhopalosiphi = assay: LR50; higher = less toxic; settings: not reported; mortality
Typhlodromus pyri = assay: LR50; higher = less toxic; settings: not reported; mortality

## COC(=O)c1ccccc1CS(=O)(=O)NC(=O)Nc1nc(OC)cc(OC)n1 [Bensulfuron-methyl]
Anas platyrhynchos; acute, oral, unspecified, M/F, mortality
  LD50: ≥ 2510 mg/kg
Anas platyrhynchos; reproductive
  NOEC: 83 mg/kg-day
Anas platyrhynchos; short-term, oral, feed, mortality
  LC50: > 1690 mg/kg-day
Apis mellifera; dermal
  LD50: > 100 µg/piece
Apis mellifera; oral, unspecified
  LD50: > 51.4 µg/piece
Canidae
  NOAEL: 19.9 mg/kg-day
Colinus virginianus
  LC50: > 1680 mg/kg-day
Daphnia magna
  NOEC: 12 mg/L
Oncorhynchus mykiss; acute, duration: 96 hours, mortality
  LC50: > 66 µg/mL
Oncorhynchus mykiss; chronic/long-term, duration: 90 days, other
  NOEC: 1.5 mg/L
Procambarus sp.
  LC50: > 71 µg/mL
Rattus norvegicus; acute, oral, mortality
  LD50: ≥ 5000 mg/kg
Rattus norvegicus; reproduction developmental, reproduction
  NOEL: 20.9 mg/kg-day
Tagia sp.
  LC50: > 1000 mg/kg
Aphidius rhopalosiphi
  LR50: > 600 g/ha
Typhlodromus pyri
  LR50: > 600 g/ha
